Source: US5968933A, “DNA-targeted alkylating agents” (Auckland Division Cancer Society of New Zealand Inc., priority 1994, dated 1999)
Entries after “also recorded” stand apart in the source; their conditions may differ.

Experiments:
linearized pSV2gpt DNA = assay: DNA crosslinking assay (agarose gel electrophoresis of linearized plasmid); type: biochemical; settings: 2 h at 30° C., TE-80 buffer pH 8
Procedure: The ability of representative compounds of the invention to bind to and cross-link DNA was examined. This was carried out by agarose gel electrophoresis of plasmid DNA using linearized pSV2gpt DNA (Tindall, K. R. and Stankowski, L. F.; Mutation Research, 1989 220 241-245) and the method reported by Valu et al, 1990, op.cit. Briefly, linearized pSV2gpt DNA (1 μL of a 1 mg/mL solution) was incubated with drug in TE-80 buffer (10 mM Tris.HCl, 1 mM EDTA at pH 8), shielded from ambient light, for 2 h at 30° C., then denatured by the addition of […] of 1% sodium dodecyl sulfate and 10 μL of 50 mM methylmercury hydroxide and incubated for a further 30 min at 20° C. in the dark. Renaturation of drug-treated DNA samples was carried out by incubation with 2.5 μL of 2-mercaptoethanol for 1 h. Samples were prepared for electrophoresis by the addition of 0.1 mg/mL bromophenol blue, 0.5 μg/mL ethidium bromide and 5 μL of 40% sucrose. Electrophoresis was carried out at 120V in 89 mM tris/borate buffer at pH 8 containing 2 mM EDTA and 0.5 μg/mL ethidium bromide. DNA was visualized using 302 nm trans-illumination, and was photographed using Polaroid type 55 film and a Wratten 3A filter.
After drug treatment, DNA is denatured to the single stranded form, which runs as a lower band in the gels (see lanes 1 and 2 in FIG. 1). Cross-linking by the drugs is evidenced by the appearance of increasing amounts of renatured, double stranded DNA, as shown by the upper band in the gels, corresponding to the band for untreated DNA seen in lane 1.

calf thymus DNA [1] = assay: Rate of alkylation of calf thymus DNA by increase in DNA-bound fluorescence; type: biochemical; design: unit not given here
P388 cells = assay: Growth inhibition in vitro, P388 leukaemia; type: cell-based, murine; settings: for IC50: P388 cells, 72 h, MTT, read-out: IC50
Procedure: (§1) Representative examples of compounds of the invention were tested for biological activity against tumors. Compounds 1 to 6 and 14 to 21, prepared as described above, were tested for their ability to inhibit growth in vitro of cells of the wild-type murine leukaemia cell line P388, and the cell line AA8 which is derived from Chinese hamster ovary cells. For each compound, the IC50, ie. the concentration of compound which inhibited cell growth in treated cultures to 50% of that of controls, was determined, using means of three determinations. In addition, a hypersensitivity factor was determined by comparing activity of the compounds against AA8 cells to activity against UV4. The latter cell line is deficient in aspects of the excision repair pathway for removing DNA adducts, and is hypersensitive to DNA-alkylating agents, especially interstrand crosslinking agents. Previous work has shown that the ratio of IC50 s determined in the wild-type AA8 and mutant UV4 lines (the hypersensitivity factor HF) is a determinant of the mode of cell killing by alkylating agents (Palmer, B. D. et al, J. Med. Chem., 1990 33 112-121; Wilson, W. R. et al, J. Med. Chem., 1989 32 31-38). Compounds with HFs of ca. 1 are unlikely to kill cells via DNA alkylation events. Compounds which show high HF values are likely to form bulky adducts or cross-links,with the latter being especially likely for compounds showing the highest HF values (>ca. 25) (Wilson et al, op. cit.).
(§2) Cell lines were maintained in exponential growth phase by subculturing in RPMI 1640 (P338) or Alpha MEM (AA8, UV4) containing 10% fetal calf serum, as previously described (Palmer et al, op.cit.; Baguley, B. C. and Wilson, W. R., Eur. J. Cancer Clin. Oncol., 1987 23 607-613). IC50 values were determined using log-phase cultures in 96-well microculture plates, and were calculated as the nominal drug concentration required to reduce the cell density to 50% of control values, using 8 control cultures on each microplate. For P388 cultures, drug was present throughout the growth period (72 h), and final cell densities were determined using a minor modification of the MTT method of Mossman (Mossman, T., J. Immunol. Methods, 1983 65 55-63). For AA8 and UV4 cultures, drug exposure was terminated after 18 h by washing three times with fresh medium. Cultures were then grown for a further 72 h before determining cell density by staining with methylene blue (Finlay, G. J. et al, Anal. Biochem., 1984 139 272-277).

AA8 cells = assay: Growth inhibition in vitro, AA8; type: cell-based, Chinese hamster; settings: for IC50: AA8 cells, 18 h exposure, then 72 h growth, methylene blue, read-out: IC50
Procedure: as §1, §2

AA8 and UV4 cells = assay: Hypersensitivity factor (AA8/UV4 IC50 ratio); type: cell-based, Chinese hamster; settings: ratio of IC50s AA8/UV4
Procedure: as §1, §2

P338 murine leukaemia = type: in vivo, mice; settings: for in vivo antitumour activity: P388, single-dose protocol; for Optimal dose / average number of animals in a group of six which were long-term survivors: single i.p. dose; for % Increase in lifespan: single i.p. dose 24 h after tumour inoculation, at optimal dose (mg/kg: 1 30; 2 30; 3 13.3; 4 3.9; 5 5.9; 6 8.9); for average number of animals in a group of six which were long-term survivors: optimal dose
[2] = tested on: Saccharomyces cerevisiae strain D5; settings: for aberrant colonies in yeast / mitotic crossing-over: yeast strain D5, in words
S. typhimurium TA98 = assay: Bacterial mutagenicity, plate incorporation assay, TA98; settings: mean ± SD
S. typhimurium TA100 = assay: Bacterial mutagenicity, plate incorporation assay, TA100; settings: for reversion colonies, TA100: mean ± SD; for mutagenicity in TA100: statistical analysis
S. typhimurium TA102 = assay: Bacterial mutagenicity, plate incorporation assay, TA102; settings: mean ± SD
calf thymus DNA [3] = assay: Reversible DNA binding by spectrophotometric Scatchard analysis; settings: 20° C., 0.01M HEPES buffer, pH 7.00
[4] = 80 μg/plate, square brackets: toxicity becoming apparent
[5] = 120 μg/plate, square brackets: toxicity becoming apparent
[6] = 40 μg/plate, square brackets: toxicity becoming apparent
[7] = compound 4 versus compounds 2 and 3

Row | SMILES | Cross-linking (linearized pSV2gpt DNA) | Rate constant for alkylation (calf thymus DNA [1]) | IC50 (P388 cells) [nM] | IC50 (AA8 cells) [nM] | Hypersensitivity factor (AA8 and UV4 cells) | in vivo antitumour activity (P338 murine leukaemia) | Optimal dose (P338 murine leukaemia) [mg/kg] | % Increase in lifespan (P338 murine leukaemia) | reversion colonies, TA98 (S. typhimurium TA98; 4 μg/plate) | reversion colonies, TA98 (S. typhimurium TA98; 10 μg/plate) | reversion colonies, TA98 (S. typhimurium TA98; 20 μg/plate) | reversion colonies, TA98 (S. typhimurium TA98; 40 μg/plate) | reversion colonies, TA100 (S. typhimurium TA100; 4 μg/plate) | reversion colonies, TA100 (S. typhimurium TA100; 10 μg/plate) | reversion colonies, TA100 (S. typhimurium TA100; 20 μg/plate) | reversion colonies, TA100 (S. typhimurium TA100; 40 μg/plate) | reversion colonies, TA100 (S. typhimurium TA100; 80 μg/plate) | reversion colonies, TA102 (S. typhimurium TA102; 4 μg/plate) | reversion colonies, TA102 (S. typhimurium TA102; 10 μg/plate) | reversion colonies, TA102 (S. typhimurium TA102; 20 μg/plate) | other results
1 | CN1CCN(c2ccc3nc(-c4ccc5nc(-c6ccc(N(CCCl)CCCl)cc6)[nH]c5c4)[nH]c3c2)CC1 [Compound 2, 2-[2-[4-(N,N-bis(2-chloroethyl)amino)phenyl]-5-benzimidazolyl]-5-(1-methyl-4-piperazinyl)benzimidazole] | No | 1.78 × 10^4 | 800 | 1680 | 24 | highest activity | 30 | 106% | 61 ± 3 | 68 ± 2 | 58 ± 1 | 52 ± 7 | 173 ± 7 | 175 ± 17 | 167 ± 28 | 210 ± 20 | 192 ± 1 | 408 ± 31 | 371 ± 14 | 280 ± 14 | average number of animals in a group of six which were long-term survivors (P338 murine leukaemia): 2 animals; petite (mitochondrial) mutagenesis [2]: inactive; bacterial mutagenicity (S. typhimurium strains): inactive as a bacterial mutagen; reversion colonies, TA98 (S. typhimurium TA98; [4]): 55 ± 2; Site size (Number of nucleotide residues) (calf thymus DNA [3]): 2.6 nucleotide residues
2 | CN1CCN(c2ccc3nc(-c4ccc5nc(Cc6ccc(N(CCCl)CCCl)cc6)[nH]c5c4)[nH]c3c2)CC1 [Compound 3, 2-[2-[[4-(N,N-bis(2-chloroethyl)amino)phenyl]methyl]-5-benzimidazolyl]-5-(1-methyl-4-piperazinyl)benzimidazole] | No | 3.01 × 10^4 | 850 | 1500 | 59 | retained significant in vivo activity | 13.3 | 71% | 71 ± 2 | 83 ± 1 | 87 ± 6 | 86 ± 5 | 154 ± 8 | 130 ± 10 | 137 ± 43 | 167 ± 24 | 167 ± 8 | 297 ± 38 | 237 ± 64 | 304 ± 16 | reversion colonies, TA98 (S. typhimurium TA98; [4]): 77 ± 10; reversion colonies, TA98 (S. typhimurium TA98; [5]): 86 ± 8; reversion colonies, TA100 (S. typhimurium TA100; [5]): 157 ± 12; reversion colonies, TA102 (S. typhimurium TA102; [6]): 268 ± 59; reversion colonies, TA102 (S. typhimurium TA102; [5]): 505 ± 121; Site size (Number of nucleotide residues) (calf thymus DNA [3]): 3.0 nucleotide residues
3 | CN1CCN(c2ccc3nc(-c4ccc5nc(CCc6ccc(N(CCCl)CCCl)cc6)[nH]c5c4)[nH]c3c2)CC1 [Compound 4, 2-[2-[2-[4-(N,N-bis(2-chloroethyl)amino)phenyl]ethyl]-5-benzimidazolyl]-5-(1-methyl-4-piperazinyl)benzimidazole] | No | 4.62 × 10^4 | 10 | 330 | 47 | retained significant in vivo activity | 3.9 | 52% | 71 ± 2 | 74 ± 10 | 75 ± 1 | 65 ± 6 | 172 ± 4 | 231 ± 7 | 264 ± 12 | 237 ± 29 | 207 ± 10 | 340 ± 26 | 366 ± 49 | 429 ± 17 | increase in cytotoxicity in P388 (P388 cells; [7]): 80 fold; increase in cytotoxicity in AA8 (AA8 cells; [7]): 5 fold; average number of animals in a group of six which were long-term survivors (P338 murine leukaemia): 1 animals; aberrant colonies in yeast [2]: some aberrant colonies; mitotic crossing-over [2]: weak mitotic crossing-over; reversion colonies, TA100 (S. typhimurium TA100; [5]): 232 ± 19; mutagenicity in TA100 (S. typhimurium TA100): could be considered to show a mutagenic effect in TA100; also recorded: mutagenic ability; reversion colonies, TA102 (S. typhimurium TA102; [6]): 465 ± 41; reversion colonies, TA102 (S. typhimurium TA102; [4]): 609 ± 74; Site size (Number of nucleotide residues) (calf thymus DNA [3]): 2.8 nucleotide residues
4 | CN1CCN(c2ccc3nc(-c4ccc5nc(CCCc6ccc(N(CCCl)CCCl)cc6)[nH]c5c4)[nH]c3c2)CC1 [Compound 5, 2-[2-[3-[4-(N,N-bis(2-chloroethyl)amino)phenyl]propyl]-5-benzimidazolyl]-5-(1-methyl-4-piperazinyl)benzimidazole] | No | 6.52 × 10^4 | 20 | 1320 | 46 | inactive in vivo at all doses up to the maximum tolerable dose | 5.9 | not active | 63 ± 2 | 62 ± 1 | 71 ± 13 | 62 ± 3 | 188 ± 15 | 180 ± 5 | 205 ± 14 | 240 ± 7 | 258 ± 21 | 342 ± 32 | 392 ± 31 | 368 ± 32 | aberrant colonies in yeast [2]: some aberrant colonies; mitotic crossing-over [2]: weak mitotic crossing-over; reversion colonies, TA98 (S. typhimurium TA98; [4]): 63 ± 9; reversion colonies, TA98 (S. typhimurium TA98; [5]): 71 ± 1; mutagenicity in TA100 (S. typhimurium TA100): could be considered to show a mutagenic effect in TA100; also recorded: mutagenic ability; reversion colonies, TA102 (S. typhimurium TA102; [6]): 327 ± 17; reversion colonies, TA102 (S. typhimurium TA102; [4]): 480 ± 17; reversion colonies, TA102 (S. typhimurium TA102; [5]): 607 ± 28; Site size (Number of nucleotide residues) (calf thymus DNA [3]): 3.0 nucleotide residues
